Values quoted from earlier work as cited in US5840712A, “Water soluble vitamin B12 receptor modulating agents and methods related thereto” (Receptagen Corporation, priority 1995, dated 1998).

Target: avidin (Gallus gallus, UniProt P02701)
Sequence (P02701 25-152): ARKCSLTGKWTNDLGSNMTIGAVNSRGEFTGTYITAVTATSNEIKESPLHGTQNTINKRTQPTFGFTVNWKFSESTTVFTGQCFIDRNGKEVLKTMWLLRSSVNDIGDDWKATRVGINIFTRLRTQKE

Compound: O=C(O)CCCC[C@@H]1SC[C@@H]2NC(=O)N[C@@H]21 [biotin]
- specific binding affinity of biotin for avidin (Ka): 10^15
